Square brackets hold non-standard residues; d marks the D form. Peptide text beside a SMILES is read from it. * marks the point of attachment. ξ: configuration not given here. Ile(3ξ) = CCC(C)[C@H](N)C(=O)O; ξE = NC(CCC(=O)O)C(=O)O; Cbz = O=C(OCc1ccccc1)*; CH2F = FC* Where only a bound is given, the exact number is not on record here.

Test [1] concerns Vero. The experiment in a line: Cytotoxicity against Vero (CCL81) cells. The test is classed as functional. To be noted: Chlorocebus sabaeus.
Test [2] concerns SARS-CoV. The experiment in a line: Inhibitory activity against SARS coronavirus FFMI replication in vero (CCL81) cells. The test is classed as functional, organism-based. To be noted: Severe acute respiratory syndrome-related coronavirus.
Test [3] deals with SARS-CoV. The experiment in a line: Inhibitory activity against SARS coronavirus 6109 replication in vero (CCL81) cells. The test is classed as functional, organism-based. The following applies: Severe acute respiratory syndrome-related coronavirus.
The subject of test [4] is SARS-CoV. The experiment in a line: Inhibitory activity against SARS coronavirus FFMI replication in Caco-2 cells. The test is classed as functional, organism-based. The following applies: Severe acute respiratory syndrome-related coronavirus.
Test [5] relates to Vero. The experiment in a line: Selectivity index (CC50/EC50) in SARS coronavirus 6109 infected Vero cells. The test is classed as functional, Chlorocebus sabaeus.
The subject of another test is rhinovirus A2. The experiment in a line: Antiviral activity against Human rhinovirus 2 in a cell based assay. The test is classed as functional, organism-based.

One may read the CC50 as the concentration that lowers cell viability or growth by half. The low end stands for harm at low concentration, the high end for better tolerance by the cells. Usually EC50 stands for the midpoint of the concentration-response curve. A low value points to greater potency. In the test on Vero [1], `CN(C)C(=O)CCC(NC(=O)CNC(=O)OCc1ccccc1)C(=O)CF` (stereo not drawn) (Cbz-Gly-[ξE](NMe2)-CH2F) yielded a CC50 of over 100 µM. Further, the concentration for a half-maximal effect (EC50) with SARS-CoV [2], with SARS-CoV [3] and in the test with SARS-CoV [4] was over 100 µM in each case.

In the test with Vero [1], `CCC(C)[C@H](NC(=O)OCc1ccccc1)C(=O)NC(CCC(=O)N(C)C)C(=O)CF` (stereo not given in full) (Cbz-[Ile(3ξ)]-[ξE](NMe2)-CH2F) showed a CC50 of over 100 µM. In addition, the EC50 was 8.9 µM with SARS-CoV [2], 5.3 µM in the test with SARS-CoV [3], 8.8 µM with SARS-CoV [4] and over 100 µg/mL with rhinovirus A2. Moreover, in the test with Vero [5], the Selectivity index was over 18.

`CC(C)[C@H](NC(=O)OCc1ccccc1)C(=O)NC(CC(=O)O)C(=O)CF` (stereo not given in full) registered a CC50 with Vero [1] of over 100 µM. In addition, the EC50 in the test with SARS-CoV [2], in the test on SARS-CoV [3] and in the test on SARS-CoV [4] was over 100 µM throughout.

As for `CC(C)C[C@H](NC(=O)OCc1ccccc1)C(=O)NC(CCC(=O)N(C)C)C(=O)CF` (stereo partly drawn) (Cbz-Leu-[ξE](NMe2)-CH2F), the CC50 in the test on Vero [1] is over 100 µM. The EC50 is 3.6 µM in the test on SARS-CoV [2], 2.5 µM in the test on SARS-CoV [3], 2.4 µM in the test on SARS-CoV [4] and over 100 µg/mL in the test on rhinovirus A2. The molecule also returned a Selectivity index in the test on Vero [5] of over 40.

`C[C@H](NC(=O)OCc1ccccc1)C(=O)NC(CCC(=O)N(C)C)C(=O)CF` (stereo partly drawn) (Cbz-Ala-[ξE](NMe2)-CH2F) returned a CC50 with Vero [1] of over 100 µM. For the same molecule, the EC50 in the test with SARS-CoV [2], with SARS-CoV [3] and in the test with SARS-CoV [4] was over 100 µM each time.

`CC(C)[C@H](NC(=O)OCc1ccccc1)C(=O)NC(CCC(=O)N(C)C)C(=O)CF` (stereo partly drawn) (Cbz-Val-[ξE](NMe2)-CH2F): in the test with Vero [1], the CC50 was over 100 µM. Further, the EC50 with SARS-CoV [2] was 6.2 µM; in the test on SARS-CoV [3], 6.6 µM; in the test with SARS-CoV [4], 12.6 µM; in the test with rhinovirus A2 it was over 100 µg/mL. In the test on Vero [5], the Selectivity index was over 15.

(Values after ChEMBL document CHEMBL1149375, “Design and synthesis of dipeptidyl glutaminyl fluoromethyl ketones as potent severe acute respiratory syndrome coronovirus (SARS-CoV) inhibitors” (J Med Chem, 2006).)
